According to PMC10940605, “Design, synthesis and in vitro anticancer activity of some new lomefloxacin derivatives” (Scientific Reports, 2024):
Where two headings read alike, the source gives them in different places.

Assays:
COLO 205 = experiment: NCI-60 SRB screen; format: cell-based; details: Homo sapiens, 48 h; COLO 205, 10^–5 Molar; read-out: Percent growth inhibition
topoisomerase IIα = target: T1, topoisomerase IIα (Homo sapiens, UniProt P11388); experiment: Topoisomerase ELISA kit inhibitory assay; format: biochemical; details: four concentrations
T1 construct: purchased MBS2885049
Description: Four concentrations were used and IC50 was calculated.
Compound 3a,b,c,e were evaluated for topoisomerase IIα inhibitory activity utilizing the human DNA topoisomerase ELISA kit (MBS2885049) and following the provided procedure: • Standards and the tested compound were dissolved in sample diluent and tenfold serial dilution was achieved. • Biotin-conjugated antibody and avidin conjugated Horseradish Peroxidase (HRP-avidin) were diluted to tenfolds. • 100 µL of each concentration of standard or test compounds were added to each well and incubated at 37 °C for 1 h. • Removal of the liquid in each well was done. • To each well 100 µL of Biotin-conjugated antibody solution was added followed by incubation for 1 h at 37 °C. • The microtiter plate was allowed to aspirate and washed 3 times. • 100 µL of avidin conjugated Horseradish Peroxidase (HRP-avidin) solution was added to each well and incubatation for 1 h at 37 °C was achieved. • The plate was aspirated and washed 5 times. • Addition of 90 µL of 3,3′,5,5′-tetramethylbenzidine (TMB) substrate to each well followed by plate incubated for 30 min at 37 °C and protection from light was done. • 50 µL stop solution was added.

HT29 = experiment: NCI-60 SRB screen; format: cell-based; details: Homo sapiens, HT-29; HT29, 10^–5 Molar; read-out: Percent growth inhibition
UACC-257 = experiment: NCI-60 SRB screen; format: cell-based; details: Homo sapiens; UACC-257, 10^–5 Molar; read-out: Percent growth inhibition
DU-145 = experiment: NCI-60 SRB screen; format: cell-based; details: Homo sapiens; DU-145, 10^–5 Molar; read-out: Percent growth inhibition
[1] = system: 60 human cancer cell lines; experiment: NCI-60 SRB screen, whole panel; format: cell-based; details: for activity at 10 µM / LC50 / GI50 / inhibition at 10 µM: Homo sapiens; for activity at 10 µM: 48 h, One Dose Mean Graph, Conc 1.00E-5 Molar, read-out: Mean Growth Percent; for LC50 / Log10 TGI _MID: mean over panel, Units Molar; for LC50: read-out: Log10 LC50 _MID (converted); for GI50: mean over the cell line panel (_MID), Molar, read-out: Mean Log10 GI50 (converted)
K-562 = experiment: NCI-60 SRB screen; format: cell-based; details: Homo sapiens, K562; K-562, 10^–5 Molar; read-out: Percent growth inhibition
Outline: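 Testing used one 10^−5 M dose. Plates were incubated 48 h at 37 °C in 5% CO2 before fixation, staining with 0.4% (w/v) SRB in 1% acetic acid, solubilisation in trizma base and reading at […].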

UO-31 = experiment: NCI-60 SRB screen; format: cell-based; details: Homo sapiens; UO-31, 10^–5 Molar; read-out: Percent growth inhibition
Outline: (§1)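 Single-dose screen at 10^−5 M; cells grown in RPMI 1640 with 2 mM L-glutamine and FBS for 24 h, then exposed to compound for 48 h at 37 °C, 5% CO2. TCA-fixed, SRB-stained, absorbance read at […]; percentage growth inhibition calculated against time-zero and control wells.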

SK-MEL-2 = experiment: NCI-60 SRB screen; format: cell-based; details: Homo sapiens; SK-MEL-2, 10^–5 Molar; read-out: Percent growth inhibition
Outline: as §1

HL-60(TB) = experiment: NCI-60 SRB screen; format: cell-based; details: Homo sapiens, 10^–5 Molar, read-out: Percent growth inhibition
MOLT-4 = experiment: NCI-60 SRB screen; format: cell-based; details: Homo sapiens; MOLT-4, 10^–5 Molar; read-out: Percent growth inhibition
TK-10 = experiment: NCI-60 SRB screen; format: cell-based; details: Homo sapiens; TK-10, 10^–5 Molar; read-out: Percent growth inhibition
RPMI-8226 = experiment: NCI-60 SRB screen; format: cell-based; details: Homo sapiens; RPMI-8226, 10^–5 Molar; read-out: Percent growth inhibition
SK-OV-3 = experiment: NCI-60 SRB screen; format: cell-based; details: Homo sapiens; SK-OV-3, 10^–5 Molar; read-out: Percent growth inhibition
[2] = single dose 10^–5 M, 60 cell lines, read-out: mean percent growth inhibition

T1 sequence (P11388 whole entry): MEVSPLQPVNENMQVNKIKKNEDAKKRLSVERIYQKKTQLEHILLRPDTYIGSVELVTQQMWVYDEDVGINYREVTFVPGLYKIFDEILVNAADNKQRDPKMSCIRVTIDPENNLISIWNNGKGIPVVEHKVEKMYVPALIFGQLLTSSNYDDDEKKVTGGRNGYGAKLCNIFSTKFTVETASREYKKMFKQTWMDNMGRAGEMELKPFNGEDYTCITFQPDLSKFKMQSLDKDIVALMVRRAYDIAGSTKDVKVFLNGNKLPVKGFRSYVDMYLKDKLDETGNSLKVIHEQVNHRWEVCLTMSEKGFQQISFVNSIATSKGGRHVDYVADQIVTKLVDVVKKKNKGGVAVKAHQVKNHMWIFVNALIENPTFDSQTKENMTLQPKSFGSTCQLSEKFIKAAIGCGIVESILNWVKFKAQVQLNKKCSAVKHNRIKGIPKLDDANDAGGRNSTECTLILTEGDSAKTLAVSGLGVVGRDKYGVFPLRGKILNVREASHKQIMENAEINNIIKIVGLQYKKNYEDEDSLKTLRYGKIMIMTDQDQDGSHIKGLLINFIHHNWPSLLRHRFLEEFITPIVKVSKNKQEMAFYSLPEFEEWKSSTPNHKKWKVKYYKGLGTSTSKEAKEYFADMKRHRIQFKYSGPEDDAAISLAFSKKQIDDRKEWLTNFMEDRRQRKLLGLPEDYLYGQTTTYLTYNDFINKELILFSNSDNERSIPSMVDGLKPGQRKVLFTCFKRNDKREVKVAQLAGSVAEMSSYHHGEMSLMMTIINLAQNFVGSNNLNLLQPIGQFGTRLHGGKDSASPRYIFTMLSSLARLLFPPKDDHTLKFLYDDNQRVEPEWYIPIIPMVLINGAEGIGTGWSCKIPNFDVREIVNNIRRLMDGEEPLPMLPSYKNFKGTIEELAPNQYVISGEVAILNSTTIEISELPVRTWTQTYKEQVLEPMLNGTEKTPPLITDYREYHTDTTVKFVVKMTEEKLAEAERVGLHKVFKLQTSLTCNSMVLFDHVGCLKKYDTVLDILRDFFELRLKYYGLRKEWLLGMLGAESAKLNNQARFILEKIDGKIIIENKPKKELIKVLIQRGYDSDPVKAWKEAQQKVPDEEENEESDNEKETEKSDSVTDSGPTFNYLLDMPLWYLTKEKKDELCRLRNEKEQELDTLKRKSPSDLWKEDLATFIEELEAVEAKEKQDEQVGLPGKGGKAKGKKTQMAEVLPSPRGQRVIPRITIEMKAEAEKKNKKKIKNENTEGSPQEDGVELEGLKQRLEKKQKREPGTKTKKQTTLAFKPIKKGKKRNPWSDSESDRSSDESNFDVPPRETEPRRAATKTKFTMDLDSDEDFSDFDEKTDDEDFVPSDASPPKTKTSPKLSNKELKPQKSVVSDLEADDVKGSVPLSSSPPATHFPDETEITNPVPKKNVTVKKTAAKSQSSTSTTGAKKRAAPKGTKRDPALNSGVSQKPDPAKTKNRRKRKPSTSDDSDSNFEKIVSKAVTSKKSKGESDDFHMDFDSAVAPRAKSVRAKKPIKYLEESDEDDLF

SMILES | inhibition at 10 µM (COLO 205) [%] | IC50 (topoisomerase IIα) [nM] | inhibition at 10 µM (HT29) [%] | inhibition at 10 µM (UACC-257) [%] | inhibition at 10 µM (DU-145) [%] | activity at 10 µM [1] [%] | LC50 [1] [nM] | GI50 [1] [nM] | inhibition at 10 µM [1, 2] [%] | Log10 TGI _MID [1] | inhibition at 10 µM (K-562) [%] | inhibition at 10 µM (UO-31) [%] | inhibition at 10 µM (SK-MEL-2) [%] | inhibition at 10 µM (HL-60(TB)) [%] | inhibition at 10 µM (MOLT-4) [%] | inhibition at 10 µM (TK-10) [%] | inhibition at 10 µM (RPMI-8226) [%] | inhibition at 10 µM (SK-OV-3) [%] | inhibition at 10 µM ([1]; prostate and renal cancer cell lines, 10^−5 M, read-out: percent inhibition) [%]
CCn1cc(C(=O)NN=Cc2ccccc2)c(=O)c2cc(F)c(N3CCNC(C)C3)c(F)c21 (stereo not shown) [Compound 3a, N'-Benzylidene-1-ethyl-6,8-difluoro-7-(3-methylpiperazin-1-yl)-4-oxo-1,4-dihydroquinoline-3-carbohydrazide] | 174 | 1740 | 192 | 60.4 | 188 | -2.19 | 5890 | 1700 | > 47 | -5.49 | 139 | 52.5 | 6.57 | 81.9 | 125 | 17.3 | 142 |  | 
CCn1cc(C(=O)NN=Cc2cccc(F)c2)c(=O)c2cc(F)c(N3CCNC(C)C3)c(F)c21 (stereo not shown) [Compound 3b, 1-Ethyl-6,8-difluoro-N′-(3-fluorobenzylidene)-7-(3-methylpiperazin-1-yl)-4-oxo-1,4-dihydroquinoline-3-carbohydrazide] | 82.5 | 2410 | 187 | 11 | 188 | 11.2 | 6610 | 1700 | > 47 | -5.47 | 152 | 79.4 |  | 34.5 | 126 |  | 142 |  | 
CCn1cc(C(=O)NN=Cc2ccc(Br)cc2)c(=O)c2cc(F)c(N3CCNC(C)C3)c(F)c21 (stereo not shown) [Compound 3c, N'-(4-Bromobenzylidene)-1-ethyl-6,8-difluoro-7-(3-methylpiperazin-1-yl)-4-oxo-1,4-dihydroquinoline-3-carbohydrazide] | 67.9 | 1680 | 132 |  | 68.6 | 51.9 | 7240 | 1740 | > 47 | -5.46 | 113 | 31.6 | 2.32 | 51.3 | 78 | 0.41 | 115 |  | 
CCn1cc(C(=O)NN=Cc2cccnc2)c(=O)c2cc(F)c(N3CCNC(C)C3)c(F)c21 (stereo not shown) [Compound 3d, 1-Ethyl-6,8-difluoro-7-(3-methylpiperazin-1-yl)-4-oxo-N'-(pyridin-3-ylmethylene)-1,4-dihydroquinoline-3-carbohydrazide] | 46.8 |  | 56.3 | 1.56 | 57.5 | 53.2 |  |  |  |  | 71.9 | 12.5 | 44.1 | 30.5 | 65.6 | 29 | 13.4 | 16.2 | 
CCn1cc(C(=O)NN=Cc2cccs2)c(=O)c2cc(F)c(N3CCNC(C)C3)c(F)c21 (stereo not shown) [Compound 3e, 1-Ethyl-6,8-difluoro-7-(3-methylpiperazin-1-yl)-4-oxo-N'-(thiophen-2-ylmethylene)-1,4-dihydroquinoline-3-carbohydrazide] | 142 | 980 | 177 |  | 51.7 | 52.6 | 7240 | 1820 | > 47 | -5.44 | 139 | 33.2 |  |  | 24.9 | 16.1 | 137 | 9.74 | 
CCn1cc(C(=O)O)c(=O)c2cc(F)c(N3CCN(CC(=O)Nc4ccccc4)C(C)C3)c(F)c21 (stereo not shown) [Compound 5a, 1-Ethyl-6,8-difluoro-7-(3-methyl-4-(2-oxo-2-(phenylamino)ethyl)piperazin-1-yl)-4-oxo-1,4-dihydroquinoline-3-carboxylic acid] |  |  |  |  |  | 97.2 |  |  |  |  | 12.9 | 23.5 |  |  |  |  |  | 9.27 | 
CCn1cc(C(=O)O)c(=O)c2cc(F)c(N3CCN(CC(=O)Nc4ccc(Cl)cc4)C(C)C3)c(F)c21 (stereo not shown) [Compound 5b, 7-(4-(2-((4-Chlorophenyl)amino)-2-oxoethyl)-3-methylpiperazin-1-yl)-1-ethyl-6,8-difluoro-4-oxo-1,4-dihydroquinoline-3-carboxylic acid] |  |  |  |  |  | 94.6 |  |  |  |  | 14.2 | 31.4 |  |  | 1 |  |  | 9.6 | 
CCn1cc(C(=O)O)c(=O)c2cc(F)c(N3CCN(C(=O)c4ccccc4)C(C)C3)c(F)c21 (stereo not shown) [Compound 7a, 7-(4-Benzoyl-3-methylpiperazin-1-yl)-1-ethyl-6,8-difluoro-4-oxo-1,4-dihydroquinoline-3-carboxylic acid] |  |  |  |  |  | 93.5 |  |  |  |  | 7.84 | 28.5 | 0.16 |  |  | 13 |  |  | 
CCn1cc(C(=O)O)c(=O)c2cc(F)c(N3CCN(C(=O)c4ccc(Br)cc4)C(C)C3)c(F)c21 (stereo not shown) [Compound 7b, 7-(4-(4-Bromobenzoyl)-3-methylpiperazin-1-yl)-1-ethyl-6,8-difluoro-4-oxo-1,4-dihydroquinoline-3-carboxylic acid] |  |  |  |  |  | 98.8 |  |  |  |  | 0.24 | 21.4 |  |  |  |  |  | 1.83 | 
CCn1cc(C(=O)O)c(=O)c2cc(F)c(N3CCN(C(=O)c4ccc(Cl)cc4)C(C)C3)c(F)c21 (stereo not shown) [Compound 7c, 7-(4-(4-Chlorobenzoyl)-3-methylpiperazin-1-yl)-1-ethyl-6,8-difluoro-4-oxo-1,4-dihydroquinoline-3-carboxylic acid] |  |  |  |  |  | 97.7 |  |  |  |  | 1.62 | 23.9 |  |  |  |  |  | 2.14 | 
CCn1cc(C(=O)O)c(=O)c2cc(F)c(N3CCN(C(=O)c4ccc([N+](=O)[O-])cc4)C(C)C3)c(F)c21 (stereo not shown) [Compound 7d, 1-Ethyl-6,8-difluoro-7-(3-methyl-4-(4-nitrobenzoyl)piperazin-1-yl)-4-oxo-1,4-dihydroquinoline-3-carboxylic acid] |  |  |  |  |  | 97.3 |  |  |  |  | 2.06 | 27.2 |  | 24.7 |  |  |  |  | 12 to 27.2
